Source: patent publication US9416115B2, “Fused heterocyclic compounds as ion channel modulators” (Gilead Sciences, Inc., priority 2013, dated 2016)

What was measured:
[1] = target: wild-type human cardiac sodium channel, hNav1.5 (Homo sapiens, UniProt Q14524); test: Late INa screening assay (QPatch whole cell patch clamp, Tefluthrin-induced late current); assay type: cell-based; conditions: HEK293 hNav1.5, percent block of late INa
Method in brief: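 HEK293 cells stably expressing hNav1.5 without beta subunits were whole-cell patch clamped at 23-25 °C, stepping from −120 to −20 mV for 250 ms at 0.1 Hz. Late current (240–265 ms) was induced with 10 μM Tefluthrin, and compounds were added typically at 0.3 or 1 μM. Percent block was taken against 0 Na baseline with rundown correction.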

hNaV1.2 (SCN2A) = target: T1, hNaV1.2 (SCN2A) (Homo sapiens, UniProt Q99250); test: Use-dependent inhibition of the CNS Nav1.2 sodium channel; assay type: cell-based; conditions: use-dependent block, 25 Hz, pulse 20, read-out: Nav1.2 UDB 25 Hz 10 uM
T1 construct: expressed in transfected cells
Method in brief: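 Use-dependent block of human Nav1.2 was measured by automated whole-cell patch clamp (QPatch) in HEK-293 cells stably expressing hNaV1.2 with SCN1B and SCN2B. From a holding potential of −120 mV, a train of 20 pulses to 0 mV (20 ms, 25 Hz) was applied. Peak current at pulse 20 was normalized to the first pulse, and percent inhibition was calculated relative to compound-free recordings.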

T1 sequence (Q99250 whole entry): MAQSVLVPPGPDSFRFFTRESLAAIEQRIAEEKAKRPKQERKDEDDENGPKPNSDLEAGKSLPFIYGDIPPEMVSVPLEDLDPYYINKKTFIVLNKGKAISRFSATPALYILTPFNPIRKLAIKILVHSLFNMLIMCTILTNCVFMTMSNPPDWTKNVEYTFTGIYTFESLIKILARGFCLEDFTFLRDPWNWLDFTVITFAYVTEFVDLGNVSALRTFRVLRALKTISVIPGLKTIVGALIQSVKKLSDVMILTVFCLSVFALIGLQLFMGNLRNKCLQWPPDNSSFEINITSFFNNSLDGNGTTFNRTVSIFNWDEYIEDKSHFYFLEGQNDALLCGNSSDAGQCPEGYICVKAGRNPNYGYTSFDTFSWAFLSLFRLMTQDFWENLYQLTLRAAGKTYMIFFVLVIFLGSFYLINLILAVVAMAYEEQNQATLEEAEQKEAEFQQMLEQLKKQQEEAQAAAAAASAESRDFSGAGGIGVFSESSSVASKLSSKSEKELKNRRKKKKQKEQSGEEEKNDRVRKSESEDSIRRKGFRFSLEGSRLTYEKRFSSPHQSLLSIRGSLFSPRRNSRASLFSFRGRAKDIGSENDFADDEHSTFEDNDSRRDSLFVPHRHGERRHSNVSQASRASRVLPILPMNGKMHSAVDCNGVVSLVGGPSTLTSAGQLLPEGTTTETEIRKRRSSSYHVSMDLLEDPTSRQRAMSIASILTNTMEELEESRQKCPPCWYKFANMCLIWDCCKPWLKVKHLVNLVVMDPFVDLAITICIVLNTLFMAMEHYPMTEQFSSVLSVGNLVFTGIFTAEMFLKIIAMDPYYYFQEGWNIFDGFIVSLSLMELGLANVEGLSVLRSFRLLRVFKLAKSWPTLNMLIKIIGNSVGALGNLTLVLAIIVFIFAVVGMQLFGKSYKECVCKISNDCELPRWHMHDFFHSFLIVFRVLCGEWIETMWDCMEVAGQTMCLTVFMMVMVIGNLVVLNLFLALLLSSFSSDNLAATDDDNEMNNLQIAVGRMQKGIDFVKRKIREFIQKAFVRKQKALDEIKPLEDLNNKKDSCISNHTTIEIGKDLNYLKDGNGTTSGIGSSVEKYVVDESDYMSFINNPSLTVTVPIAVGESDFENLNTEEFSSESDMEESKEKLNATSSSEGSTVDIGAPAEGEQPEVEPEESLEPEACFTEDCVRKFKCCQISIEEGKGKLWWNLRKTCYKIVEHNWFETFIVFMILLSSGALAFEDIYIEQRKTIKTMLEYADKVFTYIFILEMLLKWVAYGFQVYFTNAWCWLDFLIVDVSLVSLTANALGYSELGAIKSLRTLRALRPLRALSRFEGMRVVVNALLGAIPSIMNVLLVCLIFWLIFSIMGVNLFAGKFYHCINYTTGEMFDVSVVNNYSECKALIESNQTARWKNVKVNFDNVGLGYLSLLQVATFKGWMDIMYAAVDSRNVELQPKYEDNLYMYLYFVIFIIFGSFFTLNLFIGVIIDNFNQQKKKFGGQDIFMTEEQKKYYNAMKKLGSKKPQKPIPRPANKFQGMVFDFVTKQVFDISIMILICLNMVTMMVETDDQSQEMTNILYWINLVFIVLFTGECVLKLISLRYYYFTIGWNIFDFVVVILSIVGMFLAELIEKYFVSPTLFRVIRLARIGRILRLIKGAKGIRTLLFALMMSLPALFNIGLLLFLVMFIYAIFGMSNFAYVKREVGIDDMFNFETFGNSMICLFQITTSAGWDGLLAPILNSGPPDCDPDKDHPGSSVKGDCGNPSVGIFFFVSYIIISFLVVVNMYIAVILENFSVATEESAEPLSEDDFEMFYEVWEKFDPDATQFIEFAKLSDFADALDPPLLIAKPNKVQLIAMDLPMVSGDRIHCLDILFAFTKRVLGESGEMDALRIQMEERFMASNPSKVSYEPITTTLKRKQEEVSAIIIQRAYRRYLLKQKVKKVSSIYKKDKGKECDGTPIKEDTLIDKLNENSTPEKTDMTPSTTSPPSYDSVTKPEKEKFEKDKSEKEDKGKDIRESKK
T1 sequence (Q07699 19-218 partner): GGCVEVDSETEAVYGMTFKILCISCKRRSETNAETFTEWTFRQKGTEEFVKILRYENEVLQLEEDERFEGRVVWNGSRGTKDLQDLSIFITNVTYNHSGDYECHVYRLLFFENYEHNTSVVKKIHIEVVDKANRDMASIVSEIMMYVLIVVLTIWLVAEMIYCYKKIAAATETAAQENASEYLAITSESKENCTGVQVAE
T1 sequence (O60939 30-215 partner): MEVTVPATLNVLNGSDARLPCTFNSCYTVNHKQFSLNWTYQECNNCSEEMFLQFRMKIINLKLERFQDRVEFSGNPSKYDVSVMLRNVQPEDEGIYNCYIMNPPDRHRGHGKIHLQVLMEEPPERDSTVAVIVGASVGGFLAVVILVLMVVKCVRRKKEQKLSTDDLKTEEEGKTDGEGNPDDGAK
Sequence of wild-type human cardiac sodium channel, hNav1.5 (Q14524 whole entry): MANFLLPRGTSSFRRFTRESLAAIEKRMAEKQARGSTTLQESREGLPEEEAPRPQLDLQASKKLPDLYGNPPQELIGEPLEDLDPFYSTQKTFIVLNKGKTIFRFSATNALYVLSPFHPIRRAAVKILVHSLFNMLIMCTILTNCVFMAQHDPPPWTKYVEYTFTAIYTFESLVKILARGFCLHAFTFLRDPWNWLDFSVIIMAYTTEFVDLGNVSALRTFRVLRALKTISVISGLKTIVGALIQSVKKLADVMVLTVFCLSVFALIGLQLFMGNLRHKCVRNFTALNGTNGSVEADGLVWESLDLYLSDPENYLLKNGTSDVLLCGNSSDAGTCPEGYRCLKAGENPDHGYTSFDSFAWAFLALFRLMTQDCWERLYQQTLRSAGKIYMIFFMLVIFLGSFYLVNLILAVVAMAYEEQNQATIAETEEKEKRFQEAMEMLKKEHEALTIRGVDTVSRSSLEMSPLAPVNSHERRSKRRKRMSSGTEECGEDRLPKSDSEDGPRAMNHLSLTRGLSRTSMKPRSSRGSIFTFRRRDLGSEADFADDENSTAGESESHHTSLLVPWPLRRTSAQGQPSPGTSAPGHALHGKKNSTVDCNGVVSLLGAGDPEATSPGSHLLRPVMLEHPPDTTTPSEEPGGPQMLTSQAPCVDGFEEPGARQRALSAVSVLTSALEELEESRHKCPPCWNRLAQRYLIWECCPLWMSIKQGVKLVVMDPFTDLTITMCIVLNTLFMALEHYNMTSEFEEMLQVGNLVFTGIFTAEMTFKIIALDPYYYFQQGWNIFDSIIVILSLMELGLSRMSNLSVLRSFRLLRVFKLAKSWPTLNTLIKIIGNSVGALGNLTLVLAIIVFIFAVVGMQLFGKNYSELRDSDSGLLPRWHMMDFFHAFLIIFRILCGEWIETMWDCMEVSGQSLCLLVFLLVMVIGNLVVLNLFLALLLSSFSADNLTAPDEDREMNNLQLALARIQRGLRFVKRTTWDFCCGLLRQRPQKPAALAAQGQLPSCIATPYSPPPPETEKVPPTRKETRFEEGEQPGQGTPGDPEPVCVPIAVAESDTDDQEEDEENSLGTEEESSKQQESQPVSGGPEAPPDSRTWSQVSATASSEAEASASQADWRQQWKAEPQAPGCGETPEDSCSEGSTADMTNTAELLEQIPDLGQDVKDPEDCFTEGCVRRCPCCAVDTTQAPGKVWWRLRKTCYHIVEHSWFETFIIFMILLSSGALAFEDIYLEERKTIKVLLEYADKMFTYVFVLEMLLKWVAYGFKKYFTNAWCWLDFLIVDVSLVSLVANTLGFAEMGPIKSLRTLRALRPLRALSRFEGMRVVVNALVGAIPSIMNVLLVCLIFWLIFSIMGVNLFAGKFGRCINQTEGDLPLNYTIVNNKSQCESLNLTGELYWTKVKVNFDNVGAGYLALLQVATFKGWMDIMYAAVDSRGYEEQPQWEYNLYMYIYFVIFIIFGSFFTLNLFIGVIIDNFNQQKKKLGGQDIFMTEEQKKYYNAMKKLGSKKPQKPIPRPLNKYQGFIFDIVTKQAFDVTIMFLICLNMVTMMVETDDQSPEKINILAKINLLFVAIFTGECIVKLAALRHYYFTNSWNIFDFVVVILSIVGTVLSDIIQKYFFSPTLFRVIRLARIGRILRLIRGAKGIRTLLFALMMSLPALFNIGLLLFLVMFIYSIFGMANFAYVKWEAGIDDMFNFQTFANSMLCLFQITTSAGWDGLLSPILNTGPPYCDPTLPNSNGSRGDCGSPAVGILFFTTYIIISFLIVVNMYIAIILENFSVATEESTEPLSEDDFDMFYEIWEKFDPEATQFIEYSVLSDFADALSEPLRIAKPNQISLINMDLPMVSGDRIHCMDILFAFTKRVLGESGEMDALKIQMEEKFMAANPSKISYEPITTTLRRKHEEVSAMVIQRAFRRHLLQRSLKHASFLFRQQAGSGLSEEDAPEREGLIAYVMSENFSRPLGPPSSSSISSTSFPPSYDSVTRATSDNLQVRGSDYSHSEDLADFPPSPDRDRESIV

SMILES	inhibition at 0.3 µM [1] [%]	inhibition at 1 µM [1] [%]	inhibition at 10 µM (hNaV1.2 (SCN2A)) [%]
COc1ccnc(CNc2noc3ccc(-c4ccc(OC(F)(F)F)cc4)cc23)n1 [Example 149, N-((4-methoxypyrimidin-2-yl)methyl)-5-(4-(trifluoromethoxy)phenyl)benzo[d]isoxazol-3-amine]	50.9	87.6	44.4
Cc1cc(OC(F)(F)F)ccc1-c1ccc2onc(OCc3ncccn3)c2c1 [Example 3, 5-(2-methyl-4-(trifluoromethoxy)phenyl)-3-(pyrimidin-2-ylmethoxy)benzo[d]isoxazole]	–	52.6	< 5
FC(F)(F)Oc1ccc(-c2ccc3onc(OC[C@@H]4COCCN4)c3c2)cc1 [Example 113, (S)-3-(morpholin-3-ylmethoxy)-5-(4-(trifluoromethoxy)phenyl)benzo[d]isoxazole]	43.9	79.9	91.2
CC(=O)N1CCOC[C@@H]1COc1noc2ccc(-c3ccc(OC(F)(F)F)cc3)cc12 [Example 116, (R)-1-(3-(((5-(4-(trifluoromethoxy)phenyl)benzo[d]isoxazol-3-yl)oxy)methyl)morpholino)ethan-1-one]	–	48.3	62.3
FC(F)(F)Oc1ccc(-c2ccc3onc(OCc4cccnn4)c3c2)cc1 [Example 74, 3-(pyridazin-3-ylmethoxy)-5-(4-(trifluoromethoxy)phenyl)benzo[d]isoxazole]	15.7	60.9	< 5
COCCOc1noc2ccc(-c3ccc(OC(F)(F)F)cc3)cc12 [Example 60, 3-(2-methoxyethoxy)-5-(4-(trifluoromethoxy)phenyl)benzo[d]isoxazole]	16.8	57.2	< 5
CC(C)(C)OC(=O)N1CCOC[C@H]1COc1noc2ccc(-c3ccc(OC(F)(F)F)cc3)cc12 [Example 111, tert-butyl(S)-3-(((5-(4-(trifluoromethoxy)phenyl)benzo[d]isoxazol-3-yl)oxy)methyl)morpholine-4-carboxylate]	–	35.1	47.3
COc1cc2onc(OCc3ncccn3)c2cc1-c1ccc(Cl)c(F)c1 [Example 13, 5-(4-chloro-3-fluorophenyl)-6-methoxy-3-(pyrimidin-2-ylmethoxy)benzo[d]isoxazole]	–	35.1	5.6
